PMC10912632, “Racemization of the substrate and product by serine palmitoyltransferase from Sphingobacterium multivorum yields two enantiomers of the product from D-serine” (The Journal of Biological Chemistry, 2024)
Where “and” joins values, the source holds several entries; their conditions need not be identical. Equal entries are not always repeated. Where two headings read alike, the source gives them in different places. Marks after values point to notes of the source that are not given here.

Key:
[1] = target: T1, Sphingobacterium multivorum SPT (Sphingobacterium multivorum, UniProt A7BFV6); assay: Spectroscopic titration of SPT with amino acids (422 nm absorption, external aldimine formation); format: binding; settings: 10 μM SPT
T1 construct: harboring the plasmid expressing the full-length SPT; made in house; host or cells: Escherichia coli BL21 (DE3) pLysS
Procedure: (§1) Dependency of the reaction rates on amino acid concentrations under the condition of 1 mM palmitoyl-CoA was examined (Table 1). Each LCB product was quantified by the fluorescence intensity based on the standard curve obtained by using the corresponding authentic compound ([23]). The value of apparent catalytic efficiency ( kcatapp/Kmapp ) for D-serine was 0. 0013 min^–1 mM^–1 and was much smaller than that for L-serine ( kcatapp/Kmapp = 3.6 min^–1 mM^–1). Therefore, the KDS production by SPT from D-serine is considered to be negligible at the physiological concentration of D-serine. Next, binding of D-serine to the S. multivorum SPT was examined by spectroscopic titration. When SPT was incubated with D-serine, spectral changes corresponding to the external aldimine formation between PLP and the amino acid were observed (Supporting information).
Figure S1. Spectroscopic titration of the S. multivorum SPT with D-serine or α-methyl-D-serine. (A) Absorption spectra of SPT (10 μM) in the presence of 0, 2.0, 5.0, 9.9, 15, 20, 29, 38, and 48 mM D-serine (lines 1–9, respectively).
(B) Absorption spectra of SPT (10 μM) in the presence of 0, 3.0, 6.0, 9.9, 20, 34, 52, 74, and 99 mM α-methyl-D-serine (lines 1–9, respectively).
Determination of dissociation constants (Kd) for amino acids.
The titration assay was carried out as previously reported (1). The changes of the 422 nm-absorption intensities of SPT upon addition of amino acids were plotted against the final concentrations of the amino acids, and the Kd values were calculated by fitting to a hyperbolic saturation curve using Igor Pro 6.37. software (Wave Matrix Inc., Lake Oswego, Oregon, […]
United States). […]

[2] = target: T1, Sphingobacterium multivorum SPT; set-up: method as in PMID 23957439; settings: 1 mM palmitoyl-CoA; cited from earlier work
[3] = target: T1, Sphingobacterium multivorum SPT; assay: Chiral HPLC of 7-methoxycoumarin-labeled KDS enantiomers after SPT reaction or incubation; format: biochemical; settings: 1.3 mM KDS incubated with 230 μM SPT, 37 °C, 120 min
Source text: KDS has a chiral center at the C2 position to which hydrogen, hydroxymethyl, amino, and acyl groups are attached. In the present study, it was necessary to know which optical isomer, (2S)- or (2R)-KDS, was formed from D-serine. In order to detect KDS enantiomers, we developed a new method in which each enantiomer of 7-methoxycoumarin-labeled KDS was separated and quantified by chiral HPLC (Fig. 2A). First, the standard compounds (2S)-2-amino-1-hydroxyoctadecan-3-one (L-serine–type (2S)-KDS) and (2R)-2-amino-1-hydroxyoctadecan-3-one (D-serine–type (2R)-KDS) were chemically synthesized (Supporting information). Next, the conditions for fluorescence labeling and HPLC were examined using these authentic compounds; the successful separation of KDS enantiomers was achieved by 7-methoxycoumarin labeling of the amino group of KDS (Fig. 2B, lines 1–3). The labeled (2S)-KDS and (2R)-KDS were eluted at 7.7 and 8.9 min, respectively, with the calculated separation factor of 1.3 (Fig. 2B, line 3). When the SPT reaction product derived from L-serine was analyzed, two fluorescence peaks were detected (Fig. 2B, line 4). […] Similarly, for the SPT reaction product derived from D-serine, two fluorescence peaks corresponding to 7-methoxycoumarin-labeled (2S)-KDS and 7-methoxycoumarin-labeled (2R)-KDS were detected (Fig. 2B, line 5). […]

[4] = target: T1, Sphingobacterium multivorum SPT; assay: TLC/autoradiography analysis of KDS formation; format: biochemical; settings: 500 mM serine, 1 mM [1-14C]-palmitoyl-CoA, 100 μM SPT, 37 °C, 60 min
Source text: We previously reported that the KDS formation from D-serine was not detected under physiological assay conditions using S. paucimobilis SPT ([15], [47]). […] Each reaction product was ninhydrin-positive with the specific color and the Rf value, which corresponded to those of a commercial authentic KDS on the TLC plate (Fig. 1A, lanes 2 and 4). […] Such radioactive reaction products were not detected under the reaction condition lacking the amino acid substrate or SPT. The structure of the reaction product derived from each serine enantiomer was confirmed by HPLC/triple quadrupole/linear ion trap mass spectrometry using a commercially available authentic KDS as the standard (Fig. 1C).
Figure 1 Formation of KDS from L-serine and D-serine by the Sphingobacterium multivorum SPT.A, image of the TLC analysis of KDS visualized with ninhydrin reagent: lane 1, extract of the reaction mixture without the amino acid substrate; lane 2, extract of the reaction mixture with L-serine; lane 3, commercial authentic KDS (L-serine–derived, (2S)-KDS); lane 4, extract of the reaction mixture with D-serine; lane 5, extract of the reaction mixture without SPT. The complete reaction mixture contained 500 mM L-/D-serine, 1 mM palmitoyl-CoA, and 100 μM SPT and was incubated at 37 °C for 60 min. […] Radioactivity was incorporated to the reaction product from the substrate [1-^14C]-palmitoyl-CoA. […]

[5] = target: T1, Sphingobacterium multivorum SPT; assay: Serine racemase assay of SPT (fluorescence derivatization, reverse-phase HPLC); format: biochemical; settings: 1 mM D-serine, 47 μM SPT, 37 °C, no palmitoyl-CoA
Procedure: In order to verify the possibility of conversion between D-serine and L-serine, the serine racemase activity of SPT in the absence of palmitoyl-CoA was examined by the combination of fluorescence labeling and reverse-phase HPLC (Fig. 4).
One millimolar L-serine or D-serine was incubated with or without 47 μM SPT at 37 °C for 24 h. […] The reaction mixture containing 1 mM serine and 47 μM SPT was incubated at 37 °C for 1 to 24 h. […] The reaction mixture contained 1 mM serine and either or both of 1 mM PLP and 47 μM SPT.
Serine racemase assay of SPT was performed by determining the amount of each antipodal serine derivative formed from D-serine or L-serine as previously reported with some modifications ([48]). After D/L-serine was derivatized to fluorescent diastereomer, the enantioselective detection of serine was performed on an HPLC system with a Multi lambda Fluorescence Detector (Waters Corporation). The reaction was carried out at 37 °C for 1 to 24 h in a reaction mixture (100 μl) containing 100 mM Tris/HCl buffer (pH 7.5), 1 mM D/L-serine, and 47 μM SPT with or without 1 mM PLP. […] For fluorescence detection, the excitation and emission wavelengths were 350 nm and 450 nm, respectively. […]

[6] = target: T1, Sphingobacterium multivorum SPT; assay: Steady-state kinetics of LCB (KDS) formation by SPT; format: biochemical; settings: 1 mM palmitoyl-CoA
Procedure: as §1
The assay was performed as previously reported ([23]). For qualitative analysis, 500 mM of L-serine or D-serine was incubated with 1 mM palmitoyl-CoA and 100 μM SPT in 100 μl of 100 mM potassium phosphate, pH 7.5, at 37 °C for 60 min. [1-^14C] palmitoyl-CoA (20 kBq/μmol) was supplemented into the above reaction mixture as the tracer. The reactions were terminated by addition of the equal volume of 2 N ammonia. Lipids were extracted by successive addition and mixing of 750 μl of chloroform/methanol (1:2, v/v), 250 μl of chloroform, and 250 μl of 1% KCl. Phases were separated by centrifugation, and the organic phase was recovered. […] For the quantitative analysis, the UV-fluorescence intensities of the reaction products on TLC plates were visualized by a Fusion chemiluminescence imaging system using a UV-light box and analyzed by a FUSION Capt software (Vilber Lourmat).
Steady-state kinetic parameters were determined by varying the concentrations of D-serine in the presence of 1 mM palmitoyl-CoA in 100 μl of 100 mM potassium phosphate, pH 7.5, at 37 °C. […] The reaction termination, lipid extraction, TLC analysis, and quantification of the reaction products on TLC plates were described above. […]

[7] = target: T1, Sphingobacterium multivorum SPT; set-up: method as in PMID 23957439; settings: spectroscopic titration; cited from earlier work

T1 sequence (A7BFV6 whole entry): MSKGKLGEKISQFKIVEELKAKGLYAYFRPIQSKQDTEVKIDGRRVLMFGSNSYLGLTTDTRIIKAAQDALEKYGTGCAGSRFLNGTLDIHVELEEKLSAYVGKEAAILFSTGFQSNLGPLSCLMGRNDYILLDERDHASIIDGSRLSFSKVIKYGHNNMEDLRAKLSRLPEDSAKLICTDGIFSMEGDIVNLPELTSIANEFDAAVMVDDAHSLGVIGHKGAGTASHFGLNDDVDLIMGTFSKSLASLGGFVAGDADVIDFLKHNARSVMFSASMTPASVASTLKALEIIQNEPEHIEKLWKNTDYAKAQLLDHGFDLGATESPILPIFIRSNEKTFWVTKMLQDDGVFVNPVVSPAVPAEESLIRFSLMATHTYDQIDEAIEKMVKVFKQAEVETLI

| SMILES | Kd [1] | Kmapp [2] | kcatapp [2] | kcatapp/Kmapp (apparent catalytic efficiency) [2] | other results |
| --- | --- | --- | --- | --- | --- |
| C[C@@](N)(CO)C(=O)O [α-methyl-D-serine, reference compound] | 27 ± 2.5 mM |  |  |  |  |
| C[C@H](N)C(=O)O [L-alanine] |  | 110 ± 9.0 ^b mM | 0.42 ± 0.011 ^b min^–1 | 0.0037 ^b min^–1 mM^–1 |  |
| C[C@](N)(CO)C(=O)O [α-methyl-L-serine, reference compound] | 8.3 ± 1.8 mM |  |  |  |  |
| N[C@H](CCO)C(=O)O [D-homoserine] | 90 ± 8 mM |  |  |  |  |
| CCCCCCCCCCCCCCCC(=O)[C@@H](N)CO [(2S)-KDS, (2S)-2-amino-1-hydroxyoctadecan-3-one] |  |  |  |  | SPT-dependent racemization of KDS enantiomer [3]: the racemized product was formed in each case, albeit in a smaller amount |
| CCCCCCCCCCCCCCCC(=O)[C@H](N)CO [(2R)-KDS, (2R)-2-amino-1-hydroxyoctadecan-3-one] |  |  |  |  | SPT-dependent racemization of KDS enantiomer [3]: the racemized product was formed in each case, albeit in a smaller amount |
| N[C@H](CO)C(=O)O [D-serine] | 11 ± 1.8 mM |  |  |  | formation of KDS reaction product [4]: the reaction product was formed; formation rate of L-serine from D-serine (racemization) [5]: 0.0020 min^–1; kcatapp/Kmapp (apparent catalytic efficiency) [6]: 0.0013 min^–1 mM^–1; Kmapp ([6]; 10 μM SPT, pH 7.5, 37 °C): 237.7 ± 44.3 mM; kcatapp ([6]; 10 μM SPT, pH 7.5, 37 °C): 0.31 ± 0.02 min^–1 |
| N[C@@H](CCO)C(=O)O [L-homoserine] |  | 82 ± 14 ^b mM | 4.5 ± 0.28 ^b min^–1 | 0.055 ^b min^–1 mM^–1 | Kd [7]: 3.6 ± 0.2 mM |
| NCC(=O)O [glycine] |  | 77 ± 8.1 ^b mM | 0.008 ± 0.002 ^b min^–1 | 0.0001 ^b min^–1 mM^–1 | Kd [7]: 71 ± 5.5 mM |
| N[C@@H](CO)C(=O)O [L-serine] |  | 3.6 ± 0.87 ^b mM | 13 ± 1.0 ^b min^–1 | 3.6 min^–1 mM^–1 and 3.6 ^b min^–1 mM^–1 | formation of KDS reaction product [4]: the reaction product was formed |
